Data on one compound can be found in patent publication US4606911A, “Pharmaceutical composition for the prevention of dental caries” (Rohto Pharmaceutical Co. Ltd., priority 1984, dated 1986).

Entries after “also recorded” stand apart in the source; their conditions may differ.

The test system of the assay is S. mutans OMZ 176 (serotype d). In words: microbe, parasite or virus in culture. It is filed as cell-based. In outline:
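S. mutans OMZ 176 (serotype d) grown 20 h at 37° C in BHI with 5% sucrose plus compound (in water or DMSO) in tubes slanted at 30°. Adhered and non-adhered cells resuspended in 0.5 M NaOH and read at 660 nm. Adherence inhibition computed against vehicle control.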

Setting [1] is: Streptococcus mutans, read-out: Adherence-inhibiting activity (AIP).

Turning to `CC1(C)CC[C@]2(C(=O)O)CC[C@]3(C)C(=CC[C@@H]4[C@@]5(C)CC[C@H](O)C(C)(C)[C@@H]5CC[C@]43C)[C@@H]2C1` [Oleanolic acid], for the setting “Streptococcus mutans, 20 h, read-out: concentration at which adherence of the bacterial cells is inhibited”, the minimal effective concentration was 10 µg/mL. Under setting [1], the inhibition at 10 µg/mL was above 50%, the inhibition at 20 µg/mL was above 50%, the inhibition at 30 µg/mL was above 50% and the inhibition at 50 µg/mL was above 50%. Besides, under setting [1], the inhibition at 100 µg/mL is above 50%. The “adherence-inhibiting activity (in words)” value (text statement, listed as oleanolic acid) was “have both of the adherence-inhibiting activity and the selective antibacterial activity to S. mutans; also recorded: have both activities”.
